Marks after values point to notes of the source that are not given here.
Assays:
[1] = biological target: Galectin-3 (Homo sapiens, UniProt P17931); settings: relative affinity, lactose on galectin-3 given as 1; cited from earlier work
[2] = test system: Alva-41 prostate carcinoma cells; assay: In vitro growth inhibition (cytotoxicity) by cisplatin nanoparticles; format: cell-based, human; settings: at doses greater than 60 µg/ml
Experimental: FIG. 3 is a graph showing the in vitro cytotoxicity of nanoparticles comprising cisplatin and various cell recognition components for Alva-41, human tumor cells derived from a prostate carcinoma metastasis; and
Cisplatin was nanoencapsulated into the various candidate tumor-binding agents as described previously and nanoparticles were compared for growth inhibition in a metastatic variant of Alva-41 prostate carcinoma cells and Ca-9-22. Formulas were tested in duplicate in two separate experiments. Results are illustrated for the prostate cell line in FIG. 3. Referring to FIG. 3, PEX-MMP-l/Cisplatin refers to s50 nanoparticles comprising cisplatin and the Recombinant Pex binding domain of membrane-associated Matrix Metalloproteinase-1 (see Bello et. al, Cancer Research (2001) 61: 8730-36); Tenascin/Cisplatin refers to s50 nanoparticles having tenascin and cisplatin, FN-PHSCN/Cisplatin refers to nanoparticles comprising the FN-PHSCN fragment and cisplatin, galectin-3/cisplatin refers to s50 nanoparticles comprising recombinant N-terminally truncated galectin-3 and cisplatin, hyaluronan/cisplatin refers to s50 nanoparticles comprising hyaluronan and cisplatin, and naked cisplatin refers to the addition of free cisplatin to the cell medium. In these experiments cells were plated at 5,000 per well and followed for 72 hours. […]

[3] = biological target: T1, Galectin-3C (Homo sapiens, UniProt P17931); settings: relative affinity, same scale as galectin-3 column; cited from earlier work
T1 construct: The digestion produced a 143 amino acid residue polypeptide beginning with Gly-108
T1 sequence (P17931 108-250): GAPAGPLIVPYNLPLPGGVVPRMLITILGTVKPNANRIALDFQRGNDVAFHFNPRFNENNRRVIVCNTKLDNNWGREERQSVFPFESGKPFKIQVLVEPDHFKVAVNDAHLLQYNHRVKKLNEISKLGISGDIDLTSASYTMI

[4] = test system: orthotopically implanted tumors derived from breast cancer cell line MDA-MB435; assay: Orthotopic mouse model of human breast cancer; format: in vivo, nude mice
Experimental: The safety, plasma half-life, and efficacy of galectin-3C in an orthotopic mouse model of human breast cancer was evaluated. A recent feasibility study of the anticancer activity of recombinant human galectin-3 N-terminally truncated by exhaustive digestion with Clostridium histiolyticum collagenase type VII (Sigma; St. Louis, Mo.), (36, 75) in an orthotopic mouse model of metastatic breast cancer (22) produced promising results. The digestion produced a 143 amino acid residue polypeptide beginning with Gly-108. In treated animals the number of primary tumors that metastasized was less than controls by 3-fold (P=0.031), and the mean primary tumor volume of the treated animals was 61% less than the controls (P=0.009). The results provide compelling evidence that treatment with an N-terminally truncated form of galectin-3 could useful in treatment and prevention of cancer, especially metastatic cancer.
One example of the use in vivo of N-terminally truncated galectin-3 is as a potential therapeutic agent for breast cancer. It was determined that therapy with an N-terminally truncated form of galectin-3 is efficacious for inhibition of metastases. To this end, recombinant galectin-3 was produced and the N-terminally truncated galectin-3 was derived by collagenase enzyme digestion and affinity chromatography. Injected N-terminally truncated galectin-3 was detected by metabolic labeling with ^35S methionine prior to collagenase cleavage. […] Mice bearing orthotopically implanted tumors derived from breast cancer cell line MDA-MB435 were treated intramuscularly twice daily for 90 days with N-terminally truncated galectin-3 or a vehicle control. […] In a recent study at the end of the treatment period, the number of treated animals with primary tumors that metastasized was less than controls by 3-fold (P=0.031), and the mean primary tumor volume of the treated animals was 61% less than the controls (P=0.009). The results provide compelling evidence that treatment with an N-terminally truncated form of galectin-3 could useful in treatment and prevention of cancer, especially metastatic cancer. The truncated form of galectin-3 was efficacious in reducing metastases, and the tumor volumes and weights of primary tumors.

[5] = Maximum tolerated dose in nude mice; format: in vivo; settings: without overt adverse effects
[6] = design: species or system nude mice; settings: mouse, in vivo, im
[7] = test system: dog-kidney epithelial cell line MDCK II (Madin-Darby Canine Kidney); settings: lactose-inhibitable, cited from earlier work
[8] = intramuscularly twice daily for 90 days

Chain of Galectin-3 (P17931 whole entry): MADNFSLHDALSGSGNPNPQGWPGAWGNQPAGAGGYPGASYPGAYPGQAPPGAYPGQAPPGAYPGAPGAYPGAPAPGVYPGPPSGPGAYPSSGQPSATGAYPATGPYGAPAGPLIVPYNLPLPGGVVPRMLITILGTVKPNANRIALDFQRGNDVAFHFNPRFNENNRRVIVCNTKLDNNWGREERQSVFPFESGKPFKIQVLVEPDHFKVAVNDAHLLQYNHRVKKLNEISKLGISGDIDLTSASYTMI

## CO[C@H]1O[C@H](CO)[C@H](O)[C@H](O[C@H]2O[C@H](CO)[C@H](O)[C@H](O)[C@H]2O)[C@H]1O [Galα1→3GalαOme]
[1]
  Relative Carbohydrate Affinities, Galectin-3: 0.2

## N.N.[Cl][Pt][Cl] [free cisplatin, cisplatin]
[2]
  activity compared to the other nanocapsule formulations: greatest activity

## (LacNAc)2
[3]
  Relative Carbohydrate Affinities, Galectin-3C: 54
[1]
  Relative Carbohydrate Affinities, Galectin-3: 20*

## (LacNAc)5
[3]
  Relative Carbohydrate Affinities, Galectin-3C: 60.5
[1]
  Relative Carbohydrate Affinities, Galectin-3: 137

## Galβ1→3GlcNAc
[1]
  Relative Carbohydrate Affinities, Galectin-3: 6.3

## Galβ1→4(Fucα1→3)GlcNAc [Galβ1→4(Fucα1→3)GlcNAc (LeX)]
[1]
  Relative Carbohydrate Affinities, Galectin-3: <0.02

## Galβ1→4GlcNAc [Galβ1→4GlcNAc (LacNAc)]
[1]
  Relative Carbohydrate Affinities, Galectin-3: 11.3

## N-terminally truncated galectin-3: recombinant human galectin-3 truncated by collagenase digestion; 143 amino acid polypeptide beginning with Gly-108 (SEQ ID NO. 1)
[4]; end of treatment period, P=0.009
  mean primary tumor volume less than the controls: 61%
[4]; end of treatment period, P=0.031
  number of treated animals with primary tumors that metastasized, less than controls: 3 fold
[4]; [8]
  mean tumor volumes compared with control mice: statistically significantly less
  mean tumor weights compared with control mice: statistically significantly less
  mice with lymph node metastases compared with control group: fewer numbers of mice exhibited lymph node metastases
[5]
  maximum tolerated dose: greater than 125 mg/kg
[6]
  pharmacokinetic elimination half-life: 4.56 h

## galectin-3: intact wild-type galectin-3, chimera type β-galactoside binding lectin (SEQ ID NO. 3)
[7]; Transwell chambers
  apically bound radiolabeled galectin-3 endocytosed: more than 90%
[7]; after 120 min
  galectin-3 transcytosed: 20%

Reference: US20040023855A1, “Biologic modulations with nanoparticles” (priority 2002, published 2004)
